The text below walks through data of patent US20210177806A1, “COMBINATION PHARMACEUTICAL, PROPHYLACTIC OR SUPPRESSIVE AGENT FOR DEVELOPMENT OF RESISTANCE TO PYRIMIDINE ANTIMETABOLITE, AND METHOD OF TREATING DISEASE” (FUJIFILM Corporation, priority 2018, published 2021).

Entries after “also recorded” stand apart in the source; their conditions may differ.

One data set concerns SKM-1 leukemia cell line. In words: Cell proliferation assay for azacitidine after long-term culture (development of resistance). Format: cell-based. As to conditions: for sensitivity to azacitidine (dose-response curve) / development of resistance: Aza group: SKM-1 treated 4 months with azacitidine only, 50 nmol/L to 1.6 mol/L. On the procedure: SKM-1 (National Institute of Biomedical Innovation, Health and Nutrition) was used as leukemia cell line. Cells were cultured in RPMI 1640 medium (Life Technologies) containing 1% penicillin/streptomycin and 10% fetal bovine serum (FBS) in an environment of 37° C., 5% CO2 and saturated water vapor.
The respective cultures were subjected to long-term culture. The concentration of azacitidine was 50 nmol/L at the start and was doubled at 2-4 week intervals. When cultured for 2 weeks after the azacitidine concentration had reached […], the treated groups were subjected to an assay for cell proliferation for azacitidine.
In the cell proliferation assay, cells were first suspended in a medium so that the number of cells was 111,111 cells/mL, and 90 μL (10,000 cells) each of the resultant was seeded in a 96-well plate (Corning Incorporated) per well. Next, 10 μL of a PBS solution of azacitidine (0, 3, 10, 30, 100 or 300 μmon) was added to the plate, and the cells were cultured in an environment of 37° C., 5% CO2 and saturated water vapor for 72 hours.
The relative number of the cancer cells after the above incubation was measured in terms of emission intensity using Cell Titer Glo (Promega Corporation) reagent by a plate reader (Envision, PerkinElmer Inc.). With the number of cells at a concentration of azacitidine of 0 μmol/L as 100% and the emission intensity of the sample to which no cells were added as 0%, the relative value of emission intensity was calculated at each azacitidine concentration. The results of each group were plotted with the azacitidine concentration (mon) on the horizontal axis and the emission intensity (relative value) on the vertical axis.
Aza: SKM-1 cells treated for 4 months with gradual increase in the concentration of azacitidine (50 nmol/L to […]) Aza+A1: SKM-1 cells which were treated in the same manner as in the Aza group and to which Compound A was added at 1 μmon throughout the period of treatment. Aza+A10: SKM-1 cells which were treated in the same manner as in the Aza group and to which Compound A was added at 1 μmon throughout the period of treatment

Data set [1] relates to intracellular CTP (cytidine triphosphate) in leukemia cells (SKM-1). Description: Amount of intracellular CTP in leukemia cells after 4-month exposure. The data set is classed as cell-based. Here is the method: Intracellular CTP (cytidine triphosphate) competes with Aza-CTP (an active metabolite of Aza) and an increased amount of CTP may reduce sensitivity to Aza. […] Then, studies were conducted on the assumption that exposure to Compound A or a salt thereof or a hydrate thereof and Aza for a long time is effective for the recovery or retainment of sensitivity to Aza with the expectation that Compound A or a salt thereof or a hydrate thereof has an inhibitory effect on CTP increase.
The result is that a long-term (4 months) exposure of leukemia cells to a combination of Aza and Compound A.¾ hydrate caused a change in Aza sensitivity. […] Thus, treating an untreated MDS patient with a combination of Aza and Compound A or a salt thereof or a hydrate thereof is considered to be effective for maintaining their sensitivity to Aza.

The test system of data set [2] is MDS patients. In words: Administration to MDS patients (Examples 2 to 5). Format: in vivo. The settings on record: for effect on the development of resistance to pyrimidine antimetabolite: 28-day cycle. Here is the method:
(§1) Compound A is administered to MDS patients (over 18 years of age) at a dose per one time of 400 mg/m^2 twice a day for 14 days. Administration of azacitidine is started on the day when the administration of Compound A is started. Azacitidine is administered subcutaneously or intravenously at a dose of 75 mg/m^2 for 7 days. The treatment cycle consists of 28 days. After the administration for 7 days, the administration is discontinued for 21 days.
Compound A is administered to MDS patients (over 18 years of age) at a dose per one time of 400 mg/m^2 twice a day for 21 days. Azacitidine is administered subcutaneously or intravenously at a dose of 75 mg/m^2 for 7 days. The treatment cycle consists of 28 days. After the administration for 7 days, the administration is discontinued for 21 days.
as §1, with “time of 300 mg/m^2 twice” for “time of 400 mg/m^2 twice”, “21 days. […] The day of the start of administration of Compound A may be earlier than the day of the start of administration of azacitidine. Furthermore, Compound A may be administered twice a day for 21 days as in Example 3.” for “21 days.”
as §1, with “time of 200 mg/m^2 twice” for “time of 400 mg/m^2 twice”, “21 days. […] The day of the start of administration of Compound A may be earlier than the day of the start of administration of azacitidine. Furthermore, Compound A may be administered twice a day for 21 days as in Example 3.” for “21 days.”
For the MDS patients in Examples 2 to 5, the therapeutic effect is evaluated for the following items in comparison with the outcome of an azacitidine single agent+BSC (Best Supportive Care: Support therapy, transfusion, administration of antibiotics, analgesics, antipyretics, antiemetics, etc. as required) (International Phase III Test “Aza-001”). The period for which the development of resistance to pyrimidine antimetabolite is prevented or suppressed in the above patients is preferably 3 months or more, preferably 4 months or more, preferably 5 months or more, preferably 6 months or more, and preferably 1 year or more.

In data set [3] the test system is azacitidine-resistant leukemia cell lines. As to conditions: cited from earlier work.
Data set [4] has as its system MDS patients. As to conditions: AZA-001 test, cited from earlier work.

Consider `NC(=O)c1nc[nH]c1O` [Compound A, 5-Hydroxy-1H-imidazole-4-carboxamide], for which the “effect on the development of resistance to Aza” value with SKM-1 leukemia cell line (4-month exposure of naive SKM-1 to Aza and Compound A (1 mon or 10 μmon)) is “prophylactic or suppressive effect; also recorded: almost complete elimination of the development of resistance to Aza”. Besides, the “sensitivity to azacitidine (dose-response curve)” value in the data set on SKM-1 leukemia cell line (Aza+A1 group: treated as Aza group plus Compound A at 1 μmon throughout) and in the data set with SKM-1 leukemia cell line (Aza+A10 group: treated as Aza group plus Compound A at 10 mon throughout) was “almost the same as that of the control group” throughout. The “amount of intracellular CTP” value in data set [1] (Aza and Compound A combined from the start of the treatment) is “kept at a level similar to that in untreated cells”. The “effect on the development of resistance to pyrimidine antimetabolite” value in the data set with MDS patients [2] (Example 2: Compound A 400 mg/m^2 twice a day for 14 days with azacitidine 75 mg/m^2 for 7 days), with MDS patients [2] (Example 3: Compound A 400 mg/m^2 twice a day for 21 days with azacitidine 75 mg/m^2 for 7 days), in the data set on MDS patients [2] (Example 4: Compound A 300 mg/m^2 twice a day for 14 days with azacitidine 75 mg/m^2 for 7 days) and in the data set with MDS patients [2] (Example 5: Compound A 200 mg/m^2 twice a day for 14 days with azacitidine 75 mg/m^2 for 7 days) was “prophylactic or suppressive effect” in each case. For the same compound, the “side effects in patients” value with MDS patients [2] (Example 4: Compound A 300 mg/m^2 twice a day for 14 days with azacitidine) and in the data set with MDS patients [2] (Example 5: Compound A 200 mg/m^2 twice a day for 14 days with azacitidine) was “side effects in patients can be reduced” throughout. Further, in data set [3], the “cell growth inhibitory activity / cross resistance” value is on record as “cell growth inhibitory activity without cross resistance”.

With `Nc1ncn([C@@H]2O[C@H](CO)[C@@H](O)[C@H]2O)c(=O)n1` [azacitidine, 4-amino-1-β-D-ribofuranosyl-1,3,5-triazin-2(1H)-one], the “sensitivity to azacitidine (dose-response curve) / development of resistance” value with SKM-1 leukemia cell line is recorded as “the dose-response curve shifted to the right”. In addition, in the data set on SKM-1 leukemia cell line (listed as Aza), the “sensitivity to azacitidine (dose-response curve) / development of resistance” value is listed as “resulting in the development of resistance”. For the same compound, the “emission intensity (relative value) / number of viable cells” value in the data set on SKM-1 leukemia cell line (SKM-1, all groups, azacitidine 72 hours, Cell Titer Glo) is reported as “decreased azacitidine concentration-dependently”. Moreover, the “amount of intracellular CTP” value in data set [1] (4-month exposure to only Aza) was “an increase in the amount of intracellular CTP”. In the data set on MDS patients [4], the 2-year survival rate was 50.8%, the “Hematologic response rate according to IWG criteria (2000 edition)” value is given as 6.7%, the “Hematological improvement according to IWG criteria (2000 edition)” value is listed as 49.2% and the “Median time of AML transformation” value was 20.7 months. For the same compound, in the data set with MDS patients [4], the “Median time of AML transformation or death” value was 13.0 months and the “Survival (median)” value is 24.5 months. Further, the “patients who achieved platelet transfusion-independence from dependence” value in the data set on MDS patients [4] (no platelet transfusions for consecutive 56 days or more) is 42.1%. Also, the “patients who achieved red blood cell transfusion-independence from dependence” value in the data set with MDS patients [4] (no red blood cell transfusions for consecutive 56 days or more) was 45.0%.
